Reference: patent publication US12139486B2, “Octahydro fused azadecalin glucocorticoid receptor modulators” (Corcept Therapeutics, Inc., priority 2013, dated 2024)
pKi: −log10 of the molar value.

What was measured:
[1] = target: T1, human recombinant GR (Homo sapiens, UniProt P04150); experiment: Human Glucocorticoid Receptor (GR) Fluorescence Polarisation (FP) Binding Assay; conditions: Ki from IC50 by ligand depletion correction; displacement of Fluorome GS Red
T1 construct: purchased PanVera P2812
T1 sequence (P04150 1-777): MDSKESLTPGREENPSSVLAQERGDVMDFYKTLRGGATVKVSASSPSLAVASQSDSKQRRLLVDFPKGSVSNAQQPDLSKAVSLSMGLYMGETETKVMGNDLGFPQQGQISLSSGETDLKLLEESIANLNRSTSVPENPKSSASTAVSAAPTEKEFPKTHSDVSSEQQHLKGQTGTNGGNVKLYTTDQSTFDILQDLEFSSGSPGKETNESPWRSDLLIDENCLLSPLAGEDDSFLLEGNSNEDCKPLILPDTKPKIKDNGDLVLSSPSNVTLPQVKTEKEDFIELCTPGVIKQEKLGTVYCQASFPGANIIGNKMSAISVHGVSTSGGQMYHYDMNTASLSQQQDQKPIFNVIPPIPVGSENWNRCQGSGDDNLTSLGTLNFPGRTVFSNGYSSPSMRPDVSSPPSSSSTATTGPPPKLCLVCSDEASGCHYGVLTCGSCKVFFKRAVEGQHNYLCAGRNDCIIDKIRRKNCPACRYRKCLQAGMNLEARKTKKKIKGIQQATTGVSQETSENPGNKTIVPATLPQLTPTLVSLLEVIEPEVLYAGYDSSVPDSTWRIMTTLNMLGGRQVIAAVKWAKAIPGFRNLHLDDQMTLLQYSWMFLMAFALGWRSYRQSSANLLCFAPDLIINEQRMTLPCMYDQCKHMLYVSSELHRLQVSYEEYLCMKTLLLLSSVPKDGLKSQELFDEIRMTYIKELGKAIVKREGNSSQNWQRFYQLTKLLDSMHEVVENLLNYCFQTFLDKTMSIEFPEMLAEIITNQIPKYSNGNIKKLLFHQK
Procedure: The following is a description of a FP assay for measuring compound inhibition of labelled glucocorticoid binding to the human recombinant GR.
The binding affinity of test compounds was determined using a FP binding assay using human recombinant GR (PanVera P2812) and a fluorescent labelled glucocorticoid ligand (Fluorome GS Red) (PanVera P2894). The presence of inhibitors prevents the formation of a GS Red/GR complex resulting in a decrease in the measured polarisation value. The change in polarisation value in the presence of test compounds is used to calculate the binding affinity of the compound for GR.
This assay was performed in 384 well, black, round-bottom, polypropylene micro titre plates in a final volume of 20 μl. The assay contained 5 μl 1 nM GR (final concentration), 5 μl 0.5 nM Fluorome GS Red (final concentration) in the presence of 10p test compounds. Positive control wells (high polarisation) receive, 10 μl 2% (v:v) DMSO vehicle (1% (v/v) final concentration)+5 μl 1 nM GR and 5 μl 0.5 nM Fluorome GS Red. […] Assay blank background wells (used for normalisation) receive 15 μl 1×GS screening buffer+5 μl GR.
For the IC50 determination (concentration of compound that displaces 50% of the bound GS Red), compounds were tested at eight different concentrations in duplicate in two independently performed experiments. Compounds were prepared as solubilised solids at 10 mM in DMSO. On the day of assay, an 8 point half-log serial dilution (55 μl DMSO+25 μl compound solution) was prepared. A 1:50 dilution (1 μl compound solution+49 μl 1×GR screening buffer) was prepared for each compound. The compounds were prepared at 2× final assay concentration.
The plates were mixed and incubated for 4 hour at room temperature. FP was measured using an Envision Excite plate reader with 535 nm excitation and 590 nm emission interference filters.
Milli-polarisation (mP) values were calculated using the below equation: mP=1000*(S−G*P)/(S+G*P) where S and P are assay blank background subtracted fluorescence units, G=G-factor (1.07).
Compound IC50 values were calculated by plotting a [compound] v. % inhibition curve and fitting the data to a 4-parameter logistic fit equation.
10×GR screening buffer (100 mM potassium phosphate pH 7.4, 200 mM Na2MoO4, 1 mM EDTA, 20% (v/v) DMSO). To prepare 1×GR screening buffer, combine 1 ml 10×GR screening buffer (PanVera P2814)+1 ml stabilising peptide (PanVera P2815)+7.95 ml 4° C. MQ water. Add 50p 1M DTT, vortex and place on ice until use.

[2] = target: T2, glucocorticoid receptor (Homo sapiens, UniProt P04150); experiment: HepG2 Tyrosine Aminotransferase (TAT) Assay; format: cell-based
T2 construct: endogenous in cells; host or cells: HepG2
T2 sequence (P04150 1-777): T1 sequence (P04150 1-777)
Procedure: Glucocorticoid mediated activation of TAT occurs by transactivation of glucocorticoid response elements in the TAT promoter by glucocorticoid receptor-agonist complex.
HepG2 cells were cultured using MEME media supplemented with 10% (v/v) foetal bovine serum; 2 mM L-glutamine and 1% (v/v) NEAA at 37° C., 5%/95% (v/v) CO2/air.
Compounds were serially half log diluted in 100% (v/v) dimethylsulphoxide from a 10 mM stock.
HepG2 cells were then lysed with 30 μl of cell lysis buffer containing a protease inhibitor cocktail for 15 minutes at 4° C. […] After 2 hours incubation at 37° C. the reaction was terminated by the addition of 15 μl of 10 M aqueous potassium hydroxide solution, and the plates incubated for a further 30 minutes at 37° C.
[compound] and fitting the data to a 4 parameter logistic equation.

pKi [1] | pKi [2] | SMILES
< 9.00 | 7.00 to 7.70 | O=C(c1ccccn1)[C@]12Cc3cnn(-c4ccc(F)cc4)c3C[C@@H]1CCN(S(=O)(=O)c1ccc(C(F)(F)F)c(F)c1)C2 [Example 2U, ((4aR,8aS)-6-((3-fluoro-4-(trifluoromethyl)phenyl)sulfonyl)-1-(4-fluorophenyl)-4,4a,5,6,7,8,8a,9-octahydro-1H-pyrazolo[3,4-g]isoquinolin-4a-yl)(pyridin-2-yl)methanone]
> 9.30 | > 7.70 | CC(C)n1ncc(S(=O)(=O)N2CC[C@H]3Cc4c(cnn4-c4ccc(F)cc4)C[C@]3(C(=O)c3ccccn3)C2)n1 [Example 2N, ((4aR,8aS)-1-(4-fluorophenyl)-6-((2-isopropyl-2H-1,2,3-triazol-4-yl)sulfonyl)-4,4a,5,6,7,8,8a,9-octahydro-1H-pyrazolo[3,4-g]isoquinolin-4a-yl)(pyridin-2-yl)methanone]
9.00 to 9.30 | > 7.70 | CCn1ncc(S(=O)(=O)N2CC[C@H]3Cc4c(cnn4-c4ccc(F)cc4)C[C@]3(C(=O)c3cc(C(F)(F)F)ccn3)C2)n1 [Example 2O, ((4aR,8aS)-6-((2-ethyl-2H-1,2,3-triazol-4-yl)sulfonyl)-1-(4-fluorophenyl)-4,4a,5,6,7,8,8a,9-octahydro-1H-pyrazolo[3,4-g]isoquinolin-4a-yl)(4-(trifluoromethyl)pyridin-2-yl)methanone]
< 9.00 | 7.00 to 7.70 | CCn1nccc1S(=O)(=O)N1CC[C@H]2Cc3c(cnn3-c3ccc(F)cc3)C[C@]2(C(=O)c2cc(C(F)(F)F)ccn2)C1 [Example 2L, ((4aR,8aS)-6-((1-ethyl-1H-pyrazol-5-yl)sulfonyl)-1-(4-fluorophenyl)-4,4a,5,6,7,8,8a,9-octahydro-1H-pyrazolo[3,4-g]isoquinolin-4a-yl)(4-(trifluoromethyl)pyridin-2-yl)methanone]
< 9.00 | < 7.00 | Cn1ncc(S(=O)(=O)N2CC[C@H]3Cc4c(cnn4-c4ccc(F)cc4)C[C@]3(C(=O)c3nccs3)C2)n1 [Example 2Y, ((4aR,8aS)-1-(4-fluorophenyl)-6-((2-methyl-2H-1,2,3-triazol-4-yl)sulfonyl)-4,4a,5,6,7,8,8a,9-octahydro-1H-pyrazolo[3,4-g]isoquinolin-4a-yl)(thiazol-2-yl)methanone]
< 9.00 | < 7.00 | CCCn1nncc1S(=O)(=O)N1CC[C@H]2Cc3c(cnn3-c3ccc(F)cc3)C[C@]2(C(=O)c2nccs2)C1 [Example 2W, ((4aR,8aS)-1-(4-fluorophenyl)-6-((1-propyl-1H-1,2,3-triazol-5-yl)sulfonyl)-4,4a,5,6,7,8,8a,9-octahydro-1H-pyrazolo[3,4-g]isoquinolin-4a-yl)(thiazol-2-yl)methanone]
< 9.00 | < 7.00 | Cn1nncc1S(=O)(=O)N1CC[C@H]2Cc3c(cnn3-c3ccc(F)cc3)C[C@]2(C(=O)c2cc(C(F)(F)F)ccn2)C1 [Example 2X, ((4aR,8aS)-1-(4-fluorophenyl)-6-((1-methyl-1H-1,2,3-triazol-5-yl)sulfonyl)-4,4a,5,6,7,8,8a,9-octahydro-1H-pyrazolo[3,4-g]isoquinolin-4a-yl)(4-(trifluoromethyl)pyridin-2-yl)methanone]

The remaining lines, values behind:

SMILES | pKi [1] | pKi [2]
Cn1ccc(S(=O)(=O)N2CC[C@H]3Cc4c(cnn4-c4ccc(F)cc4)C[C@]3(C(=O)c3cc(C(F)(F)F)ccn3)C2)n1 [Example 2I, ((4aR,8aS)-1-(4-fluorophenyl)-6-((1-methyl-1H-pyrazol-3-yl)sulfonyl)-4,4a,5,6,7,8,8a,9-octahydro-1H-pyrazolo[3,4-g]isoquinolin-4a-yl)(4-(trifluoromethyl)pyridin-2-yl)methanone] | 9.00 to 9.30 | 7.00 to 7.70
CCCn1cc(S(=O)(=O)N2CC[C@H]3Cc4c(cnn4-c4ccc(F)cc4)C[C@]3(C(=O)c3cc(C(F)(F)F)ccn3)C2)cn1 [Example 2D, ((4aR,8aS)-1-(4-fluorophenyl)-6-((1-propyl-1H-pyrazol-4-yl)sulfonyl)-4,4a,5,6,7,8,8a,9-octahydro-1H-pyrazolo[3,4-g]isoquinolin-4a-yl)(4-(trifluoromethyl)pyridin-2-yl)methanone] | > 9.30 | > 7.70
Cn1ncc(S(=O)(=O)N2CC[C@H]3Cc4c(cnn4-c4ccc(F)cc4)C[C@]3(C(=O)c3cc(C(F)(F)F)ccn3)C2)n1 [Example 2C, ((4aR,8aS)-1-(4-fluorophenyl)-6-((2-methyl-2H-1,2,3-triazol-4-yl)sulfonyl)-4,4a,5,6,7,8,8a,9-octahydro-1H-pyrazolo[3,4-g]isoquinolin-4a-yl)(4-(trifluoromethyl)pyridin-2-yl)methanone] | 9.00 to 9.30 | > 7.70
CCn1ncc(S(=O)(=O)N2CC[C@H]3Cc4c(cnn4-c4ccc(F)cc4)C[C@]3(C(=O)c3ccccn3)C2)n1 [Example 2AB, ((4aR,8aS)-6-((2-ethyl-2H-1,2,3-triazol-4-yl)sulfonyl)-1-(4-fluorophenyl)-4,4a,5,6,7,8,8a,9-octahydro-1H-pyrazolo[3,4-g]isoquinolin-4a-yl)(pyridin-2-yl)methanone] | > 9.30 | 7.00 to 7.70
CC(C)n1cc(S(=O)(=O)N2CC[C@H]3Cc4c(cnn4-c4ccc(F)cc4)C[C@]3(C(=O)c3ccccn3)C2)cn1 [Example 2AA, ((4aR,8aS)-1-(4-fluorophenyl)-6-((1-isopropyl-1H-pyrazol-4-yl)sulfonyl)-4,4a,5,6,7,8,8a,9-octahydro-1H-pyrazolo[3,4-g]isoquinolin-4a-yl)(pyridin-2-yl)methanone] | > 9.30 | 7.00 to 7.70
Cn1ncc(S(=O)(=O)N2CC[C@H]3Cc4c(cnn4-c4ccc(F)cc4)C[C@]3(C(=O)c3cscn3)C2)n1 [Example 2AI, ((4aR,8aS)-1-(4-fluorophenyl)-6-((2-methyl-2H-1,2,3-triazol-4-yl)sulfonyl)-4,4a,5,6,7,8,8a,9-octahydro-1H-pyrazolo[3,4-g]isoquinolin-4a-yl)(thiazol-4-yl)methanone] | < 9.00 | 7.00 to 7.70
CCn1ncc(S(=O)(=O)N2CC[C@H]3Cc4c(cnn4-c4ccc(F)cc4)C[C@]3(C(=O)c3cscn3)C2)n1 [Example 2AK, ((4aR,8aS)-6-((2-ethyl-2H-1,2,3-triazol-4-yl)sulfonyl)-1-(4-fluorophenyl)-4,4a,5,6,7,8,8a,9-octahydro-1H-pyrazolo[3,4-g]isoquinolin-4a-yl)(thiazol-4-yl)methanone] | – | > 7.70
